{"source": "patent US20250177115A1", "about": "“COMBINATORIAL THERAPIES INCLUDING IMPLANTABLE DAMPING DEVICES AND THERAPEUTIC AGENTS FOR TREATING A CONDITION AND ASSOCIATED SYSTEMS AND METHODS OF USE” (THE BRAIN PROTECTION COMPANY PTY LTD, priority 2021, published 2025)", "system": "TAC mice", "experiment": "Cognition (Y Maze, exploratory behaviour)", "format": "in vivo", "protocol": "FIG. 24 is a dot plot showing the % alterations in a Y maze in mice with an absorbable suture versus a plain suture, with and without treatment according to some embodiments. Measurement of the number of alternations within the 3 arms of a Y-Maze according to the following formula: % alternation=(total alternations/(total entries−2)×100).\nCognition (Y Maze—exploratory behaviour). Cognition was measured according to the number of behavior alterations within the three (3) arms of a Y Maze, as shown in FIGS. 23-24."}
{"smiles": "CCCCCCCCc1ccc(CCC(N)(CO)CO)cc1", "note": "[Fingolimod, fingolimod]", "values": [{"measurement": "mean % alteration in a Y maze", "setting": "treated absorbable suture group, SEM=3.556, n=7", "value": 61.396, "unit": "%"}, {"measurement": "mean % alteration in a Y maze", "setting": "treated plain suture group, SEM=2.644, n=12", "value": 70.296, "unit": "%"}]}
